This is an account of results in US10047051B2, “Substituted pyridines and method of use” (AbbVie S.á{acute over (.)}r.l., priority 2015, dated 2018).

Holding throughout (assay type): cell-based
One test addresses T1, CFTR ΔF508 mutant (Homo sapiens, UniProt P13569, DEL508-508).
T1 construct: expressed in transfected cells; host or cells: CFBE41o- cells, adenoviral transduction
The experiment in a line: YFP-halide influx assay for the CFTR-ΔF508 mutation (CFBE41o- cells). The settings on record: forskolin 10.67 μM; for EC50: from (1−F/F0) vs concentration plot. Put shortly:
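EC50 derived from plotting 1−F/F0 (fluorescence 36 s after iodide injection over pre-injection value) against compound concentration. Cells: CFBE41o- transduced with ΔF508-CFTR and YFP quench reporter, corrected 24 h at 27° C or by a CFTR modulator at 37° C.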

Another test addresses T2, CFTR G551D mutant (Homo sapiens, UniProt P13569, G551D).
T2 construct: expressed in transfected cells; host or cells: HEK293 cells, reverse transfection with plasmids
Nature of the test: YFP-halide influx assay for the CFTR-G551D mutation (HEK293 cells). The settings on record: forskolin 10.67 μM. The method in brief:
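Channel opening read as I⁻-driven quenching of a YFP H148Q/I152L/F47L reporter over 7 s post-injection, expressed as 1−F/F0 and fitted against concentration for EC50. Cells were HEK293 co-transfected at seeding with G551D CFTR plus reporter, then grown 24 h at 37 °C, 5% CO2.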

The target of a further test is T3, CFTR-G1349D (Homo sapiens, UniProt P13569, G1349D).
T3 construct: expressed in transfected cells
T3 sequence (P13569 whole entry G1349D): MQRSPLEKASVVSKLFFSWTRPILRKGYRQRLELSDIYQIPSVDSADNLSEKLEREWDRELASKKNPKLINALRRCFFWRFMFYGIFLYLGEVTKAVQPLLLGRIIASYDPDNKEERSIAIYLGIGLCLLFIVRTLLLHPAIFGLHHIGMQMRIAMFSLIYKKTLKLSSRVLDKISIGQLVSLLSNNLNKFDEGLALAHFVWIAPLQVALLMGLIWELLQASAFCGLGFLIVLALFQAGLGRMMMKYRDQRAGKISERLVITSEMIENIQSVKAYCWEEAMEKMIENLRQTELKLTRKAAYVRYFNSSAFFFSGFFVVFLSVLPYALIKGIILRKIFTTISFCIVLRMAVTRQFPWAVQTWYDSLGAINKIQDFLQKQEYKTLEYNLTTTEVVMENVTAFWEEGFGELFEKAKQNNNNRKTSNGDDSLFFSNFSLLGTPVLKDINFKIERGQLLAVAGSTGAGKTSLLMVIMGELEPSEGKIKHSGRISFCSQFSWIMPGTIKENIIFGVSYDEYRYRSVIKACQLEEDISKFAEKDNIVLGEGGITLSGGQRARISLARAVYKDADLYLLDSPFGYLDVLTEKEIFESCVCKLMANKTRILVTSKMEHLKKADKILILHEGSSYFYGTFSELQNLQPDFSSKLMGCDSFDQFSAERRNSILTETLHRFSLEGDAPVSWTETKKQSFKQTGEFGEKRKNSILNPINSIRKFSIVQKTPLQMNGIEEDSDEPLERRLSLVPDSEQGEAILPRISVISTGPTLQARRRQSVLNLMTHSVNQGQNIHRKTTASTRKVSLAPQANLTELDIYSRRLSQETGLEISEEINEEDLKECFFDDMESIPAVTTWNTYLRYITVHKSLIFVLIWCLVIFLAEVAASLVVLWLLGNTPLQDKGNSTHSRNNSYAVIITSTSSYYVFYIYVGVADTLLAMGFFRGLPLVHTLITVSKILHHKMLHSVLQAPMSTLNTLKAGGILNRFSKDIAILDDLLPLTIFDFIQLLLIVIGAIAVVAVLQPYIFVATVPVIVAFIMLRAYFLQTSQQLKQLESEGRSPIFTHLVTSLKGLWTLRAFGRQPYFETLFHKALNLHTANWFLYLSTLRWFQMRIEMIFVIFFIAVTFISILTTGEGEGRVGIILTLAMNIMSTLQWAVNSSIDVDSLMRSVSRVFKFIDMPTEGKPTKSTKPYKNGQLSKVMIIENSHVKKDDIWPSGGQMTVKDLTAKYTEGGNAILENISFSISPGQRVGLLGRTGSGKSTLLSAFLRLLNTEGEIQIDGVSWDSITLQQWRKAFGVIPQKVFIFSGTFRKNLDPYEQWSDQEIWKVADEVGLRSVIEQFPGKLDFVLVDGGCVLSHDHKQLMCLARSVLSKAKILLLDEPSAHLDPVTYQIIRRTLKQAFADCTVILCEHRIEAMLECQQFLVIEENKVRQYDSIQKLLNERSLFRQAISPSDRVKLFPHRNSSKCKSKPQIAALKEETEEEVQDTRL
The experiment in a line: YFP-halide influx assay for the CFTR-G1349D. From the text:
(§1) The YFP halide influx assay measured the functionality of the cystic fibrosis Transmembrane Conductance regulator (CFTR) channels. The assay was used to evaluate the capacity of compounds to increase the channel opening of existing mutant CFTR channels in the membrane. It makes use of the observation that the yellow fluorescent protein (YFP) variant YFP H148Q, I152L, F47L has its fluorescence substantially quenched by halide ions like Cl^− and I^− (Galietta, L. J. V., Haggie, P. M., Verkman, A. S., 2001. Green fluorescent protein-based halide indicators with improved chloride and iodide affinities. FEBS Lett. 499, 220-224. doi:10.1016/S0014-5793(01)02561-3).
(§2) For this purpose, HEK293-cells were seeded in 96 well plates. During seeding, the cells were reverse-transfected with plasmid vectors that direct the expression of the CFTR G551D mutant and of the YFP reporter. Cells were incubated at 37° C., 5% CO2 for 24 hours so as to allow for sufficient expression of the CFTR protein.
(§3) The I^−-induced quenching of fluorescence was recorded immediately after injection of I^− for 7 seconds. The capacity of a compound to increase the channel opening was directly correlated with the decrease in fluorescence, and was expressed as (1−(fluorescence after 7 seconds (F)/fluorescence before injection (F0))) and an EC50 was derived from a (1−F/F0) vs compound concentration plot.
(§4) Similar YHA assays were developed for other channel gating defective or channel conductance defective CFTR mutants to determine effect of compound on channel activity. Examples of mutants are G178R, G1349D, S549N, R117H, R334W. This assay is also used for additional class I CFTR mutants, including G542X, W1282X; class II mutants including N1303K, and for class III mutants including S1251N; or wild-type CFTR.

The target in a further test is T4, CFTR-R117H (Homo sapiens, UniProt P13569, R117H).
T4 construct: expressed in transfected cells
T4 sequence (P13569 whole entry R117H): as the sequence (P13569 whole entry G1349D) above, with R117H, D1349G counted along it
The experiment in a line: YFP-halide influx assay for the CFTR-R117H.
Excerpt: as §1, §2, §3, §4

T2 sequence (P13569 whole entry G551D): as the sequence (P13569 whole entry G1349D) above, with G551D, D1349G counted along it
T1 sequence (P13569 with tags, fused parts or gaps DEL508-508): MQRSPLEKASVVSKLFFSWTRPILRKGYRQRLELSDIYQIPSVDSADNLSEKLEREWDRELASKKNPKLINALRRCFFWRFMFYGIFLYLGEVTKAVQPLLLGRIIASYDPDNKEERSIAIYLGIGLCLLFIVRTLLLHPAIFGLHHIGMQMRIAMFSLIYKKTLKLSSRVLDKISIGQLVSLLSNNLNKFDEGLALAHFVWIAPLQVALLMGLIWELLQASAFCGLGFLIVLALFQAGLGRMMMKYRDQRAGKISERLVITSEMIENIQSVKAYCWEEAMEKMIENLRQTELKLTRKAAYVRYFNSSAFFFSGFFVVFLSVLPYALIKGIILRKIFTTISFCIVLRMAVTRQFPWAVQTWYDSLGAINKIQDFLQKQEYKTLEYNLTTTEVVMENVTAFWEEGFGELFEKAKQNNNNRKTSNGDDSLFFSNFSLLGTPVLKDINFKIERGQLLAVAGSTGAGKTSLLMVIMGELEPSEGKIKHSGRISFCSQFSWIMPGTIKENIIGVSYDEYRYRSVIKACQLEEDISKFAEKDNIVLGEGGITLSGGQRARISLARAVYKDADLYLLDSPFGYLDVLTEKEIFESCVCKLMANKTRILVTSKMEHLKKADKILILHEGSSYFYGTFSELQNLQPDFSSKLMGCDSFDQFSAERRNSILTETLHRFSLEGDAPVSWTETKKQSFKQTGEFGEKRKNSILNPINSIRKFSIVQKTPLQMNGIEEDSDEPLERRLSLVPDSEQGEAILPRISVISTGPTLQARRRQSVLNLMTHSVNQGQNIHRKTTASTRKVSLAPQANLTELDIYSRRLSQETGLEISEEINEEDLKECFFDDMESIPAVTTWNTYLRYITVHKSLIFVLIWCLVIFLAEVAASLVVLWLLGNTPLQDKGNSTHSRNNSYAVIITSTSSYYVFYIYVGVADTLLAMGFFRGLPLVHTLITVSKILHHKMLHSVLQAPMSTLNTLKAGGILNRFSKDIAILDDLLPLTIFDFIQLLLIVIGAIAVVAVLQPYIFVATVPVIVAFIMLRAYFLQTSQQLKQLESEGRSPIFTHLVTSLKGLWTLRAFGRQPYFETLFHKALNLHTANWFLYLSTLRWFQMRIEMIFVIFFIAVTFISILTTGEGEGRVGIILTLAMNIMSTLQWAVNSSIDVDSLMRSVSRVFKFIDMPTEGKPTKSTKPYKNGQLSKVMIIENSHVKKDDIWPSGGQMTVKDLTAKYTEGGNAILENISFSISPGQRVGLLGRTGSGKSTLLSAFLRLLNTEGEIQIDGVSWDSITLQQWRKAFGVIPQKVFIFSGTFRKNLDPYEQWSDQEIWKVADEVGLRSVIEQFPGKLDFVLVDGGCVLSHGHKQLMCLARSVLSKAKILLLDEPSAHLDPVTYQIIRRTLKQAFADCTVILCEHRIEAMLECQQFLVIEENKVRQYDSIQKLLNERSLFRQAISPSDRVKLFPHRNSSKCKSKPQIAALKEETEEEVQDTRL

For `CCC1(F)CN(C(=O)c2ncc(S(=O)(=O)c3ccc(OC(F)(F)F)cc3)cc2N)C1` [Compound 130, (3-amino-5-{[4-(trifluoromethoxy)phenyl]sulfonyl}pyridin-2-yl)(3-ethyl-3-fluoroazetidin-1-yl)methanone], the “% Activation” value is on record as 93.9% on CFTR ΔF508 mutant, 78.3% on CFTR G551D mutant, 55.4% at CFTR-G1349D and 77.6% on CFTR-R117H. Also, the EC50 (as a rule, the concentration at which the effect is half-maximal) stood at 102 nM on CFTR ΔF508 mutant, 674 nM at CFTR G551D mutant, 703 nM on CFTR-G1349D and 580 nM at CFTR-R117H.
In the case of `CC1(O)CN(C(=O)c2ncc(S(=O)(=O)c3ccc(C(F)(F)F)cc3)cc2N)C1` [Compound 91, (3-amino-5-{[4-(trifluoromethyl)phenyl]sulfonyl}pyridin-2-yl) (3-hydroxy-3-methylazetidin-1-yl)methanone], the “% Activation” value amounted to 97.2% at CFTR ΔF508 mutant, 56.1% on CFTR G551D mutant, 76.6% at CFTR-G1349D and 89.6% at CFTR-R117H. Also, the EC50 was 11.5 nM at CFTR ΔF508 mutant, 810 nM on CFTR G551D mutant, 738 nM at CFTR-G1349D and 326 nM on CFTR-R117H.
For `CCOCC1(CNC(=O)c2ncc(S(=O)(=O)c3ccc(OC(F)(F)F)cc3)cc2N)CCC1` [Compound 118, 3-amino-N-{[1-(ethoxymethyl)cyclobutyl]methyl}-5-{[4-(trifluoromethoxy)phenyl]sulfonyl}pyridine-2-carboxamide], the “% Activation” value turned out to be 93.2% on CFTR ΔF508 mutant, 49.5% on CFTR G551D mutant, 99.5% on CFTR-G1349D and 90.7% on CFTR-R117H. Moreover, the concentration giving a half-maximal response (EC50) on CFTR ΔF508 mutant came to 208 nM; on CFTR G551D mutant, 419 nM; at CFTR-G1349D, 770 nM; at CFTR-R117H, 621 nM.
`COCC1(C)CN(C(=O)c2ncc(S(=O)(=O)c3ccc(OC(F)(F)F)cc3)cc2N)C1` [Compound 154, (3-amino-5-{[4-(trifluoromethoxy)phenyl]sulfonyl}pyridin-2-yl)[3-(methoxymethyl)-3-methylazetidin-1-yl]methanone]: the “% Activation” value stood at 98.1% on CFTR ΔF508 mutant, 81.9% on CFTR G551D mutant, 97.6% at CFTR-G1349D and 107.0% on CFTR-R117H. The EC50 was 66.3 nM on CFTR ΔF508 mutant, 881 nM at CFTR G551D mutant, 637 nM on CFTR-G1349D and 499 nM at CFTR-R117H.
`Nc1cc(S(=O)(=O)c2ccc(OC(F)(F)F)cc2)cnc1C(=O)N1CC(OCC(F)F)C1` [Compound 119, (3-amino-5-{[4-(trifluoromethoxy)phenyl]sulfonyl}pyridin-2-yl)[3-(2,2-difluoroethoxy)azetidin-1-yl]methanone]: the “% Activation” value at CFTR ΔF508 mutant came out at 101.0%; at CFTR G551D mutant, 64.6%; at CFTR-G1349D it was 84.8%; at CFTR-R117H it was 89.9%. For the same compound, the EC50 worked out at 34.1 nM at CFTR ΔF508 mutant, 554 nM on CFTR G551D mutant, 320 nM on CFTR-G1349D and 307 nM at CFTR-R117H.
`CC(C)C1(O)CN(C(=O)c2ncc(S(=O)(=O)c3ccc(C(F)(F)F)cc3)cc2N)C1` [Compound 159, (3-amino-5-{[4-(trifluoromethyl)phenyl]sulfonyl}pyridin-2-yl)[3-hydroxy-3-(propan-2-yl)azetidin-1-yl]methanone]: at CFTR ΔF508 mutant, the “% Activation” value was found to be 111.1% and the EC50 turned out to be 4.4 nM. At CFTR G551D mutant, the “% Activation” value is recorded as 46.6% and the EC50 stood at 238 nM.
For `Nc1cc(S(=O)(=O)c2ccc(OC(F)(F)F)cc2)cnc1C(=O)N[C@@H]1CCOc2ccccc21` [Compound 145, 3-amino-N-[(4R)-3,4-dihydro-2H-chromen-4-yl]-5-{[4-(trifluoromethoxy)phenyl]sulfonyl}pyridine-2-carboxamide], on CFTR ΔF508 mutant, the “% Activation” value was 98.8% and the response was half-maximal at 205 nM (EC50). Moreover, on CFTR G551D mutant, the “% Activation” value was 53.9% and a half-maximal effect (EC50) was put at 836 nM.
`Nc1cc(S(=O)(=O)c2ccc(OC(F)(F)F)cc2F)cnc1C(=O)N1CC(O)C1` [Compound 77, (3-amino-5-{[2-fluoro-4-(trifluoromethoxy)phenyl]sulfonyl}pyridin-2-yl) (3-hydroxyazetidin-1-yl)methanone]: on CFTR ΔF508 mutant, the “% Activation” value is given as 98.8% and the EC50 turned out to be 15.3 nM. For the same compound, at CFTR G551D mutant, the “% Activation” value worked out at 41.0% and the half-maximal effective concentration (EC50) is more than 3330 nM.
`CC(C)OCC(O)CNC(=O)c1ncc(S(=O)(=O)c2ccc(OC(F)(F)F)cc2)cc1N` (stereo not drawn) [Compound 90, 3-amino-N-[2-hydroxy-3-(propan-2-yloxy)propyl]-5-{[4-(trifluoromethoxy)phenyl]sulfonyl}pyridine-2-carboxamide]: at CFTR ΔF508 mutant, the “% Activation” value came to 101.0% and a half-maximal response (EC50) required 4 nM. Moreover, at CFTR G551D mutant, the “% Activation” value came to 86.8% and the EC50 turned out to be 216 nM.
As for `CC1(F)CN(C(=O)c2ncc(S(=O)(=O)c3ccc(C(F)(F)F)cc3)cc2N)C1` [Compound 294, (3-amino-5-{[4-(trifluoromethyl)phenyl]sulfonyl}pyridin-2-yl)(3-fluoro-3-methylazetidin-1-yl)methanone], at CFTR ΔF508 mutant, the “% Activation” value was found to be 97.5% and the EC50 is 9.6 nM. Also, on CFTR G551D mutant, the “% Activation” value was 104.0% and the EC50 came to 967 nM.
The matching figures for `Nc1cc(S(=O)(=O)c2ccc(OC(F)(F)F)cc2)cnc1C(=O)NC[C@@H](O)CO` [Compound 50, 3-amino-N-[(2R)-2,3-dihydroxypropyl]-5-{[4-(trifluoromethoxy)phenyl]sulfonyl}pyridine-2-carboxamide]: 90.8%, 57.5 nM, 23.5% and more than 10000 nM.
As to `Nc1cc(S(=O)(=O)c2ccccc2OC(F)(F)F)cnc1C(=O)N[C@@H]1COCC[C@@H]1O` (racemic) [Compound 83, rac-3-amino-N-[(3R,4S)-4-hydroxytetrahydro-2H-pyran-3-yl]-5-{[2-(trifluoromethoxy)phenyl]sulfonyl}pyridine-2-carboxamide], the “% Activation” value is recorded as 98.3% on CFTR ΔF508 mutant and 90.4% at CFTR G551D mutant. In addition, the EC50 at CFTR ΔF508 mutant came to 6.3 nM; at CFTR G551D mutant, 1200 nM.
As to `CC(C)Oc1ccc(S(=O)(=O)c2cnc(C(=O)NCC(O)C(F)(F)F)c(N)c2)cc1` (stereo not drawn) [Compound 237, 3-amino-5-{[4-(propan-2-yloxy)phenyl]sulfonyl}-N-(3,3,3-trifluoro-2-hydroxypropyl)pyridine-2-carboxamide], on CFTR ΔF508 mutant, the “% Activation” value is on record as 106.5% and the EC50 was 9.9 nM. Also, at CFTR G551D mutant, the “% Activation” value was 69.5% and the response was half-maximal at 546 nM (EC50).
Turning to `N#CC1CN(C(=O)c2ncc(S(=O)(=O)c3ccc(OC(F)(F)F)cc3)cc2N)C1` [Compound 61, 1-[(3-amino-5-{[4-(trifluoromethoxy)phenyl]sulfonyl}pyridin-2-yl)carbonyl]azetidine-3-carbonitrile], on CFTR ΔF508 mutant, the “% Activation” value came out at 101.0% and the EC50 was determined as 60.9 nM. Further, on CFTR G551D mutant, the “% Activation” value was determined as 70.0% and a half-maximal response (EC50) required 2730 nM.
As to `C[C@H](O)CNC(=O)c1nc(C2CC2)c(S(=O)(=O)c2ccc(OC(F)(F)F)cc2)cc1N` [Compound 290, 3-amino-6-cyclopropyl-N-[(2S)-2-hydroxypropyl]-5-{[4-(trifluoromethoxy)phenyl]sulfonyl}pyridine-2-carboxamide], the “% Activation” value at CFTR ΔF508 mutant was determined as 88.2%; at CFTR G551D mutant, 73.2%. Besides, the results for the EC50 on CFTR ΔF508 mutant and on CFTR G551D mutant were 3 nM and 473 nM, respectively.
For the compound `Nc1cc(S(=O)(=O)c2ccc(C(F)(F)F)cc2F)cnc1C(=O)NC[C@@H]1CCOC1` [Compound 114, 3-amino-5-{[2-fluoro-4-(trifluoromethyl)phenyl]sulfonyl}-N-[(3S)-tetrahydrofuran-3-ylmethyl]pyridine-2-carboxamide], on CFTR ΔF508 mutant, the “% Activation” value stood at 109.3% and the EC50 came out at 19.1 nM. At CFTR G551D mutant, the “% Activation” value was 37.9% and the 50% effective concentration (EC50) was more than 10000 nM.
